The source made the active and inactive calls. The rule behind the calls is not given here.

The IC50 is the concentration needed to halve the response being measured. For orientation: Papp means a coefficient for how fast a substance crosses the barrier.

The subject of series [1] is PC-12. The series is described as follows: Neuroprotection against H2O2-induced oxidative damage in rat PC12 cells assessed as increase in mitochondrial membrane potential at 2.5 to 10 uM after 24 hrs in presence of H2O2 by JC-1 staining based flow cytometric analysis. In kind it is functional, cell-based.
Series [2] can be described thus: Neuroprotection against H2O2-induced inflammation in human BV2 cells assessed as reduction in ROS production by measuring mean fluorescence intensity at 2.5 uM after 18 hrs by DCFH-DA staining-based flow cytometric analysis (reference value: 20004). The class given is functional. (A flow cytometer gives signals particle by particle.)
Series [3] in a line: Antioxidant activity assessed as ABTS radical cation scavenging activity by measuring trolox equivalents after 150 mins. The class given is functional.
Series [4] is filed under the species Homo sapiens. The series is described as follows: Neuroprotection against LPS-induced inflammation in […] cells assessed as reduction in nitric oxide production at 10 to 25 uM after 18 hrs by Griess reagent based assay. The class given is functional, cell-based.
Series [5] concerns PC-12. The series is described as follows: Neuroprotection against H2O2-induced cell death in rat PC12 cells at 6.25 to 25 uM preincubated for 4 hrs followed by H2O2 addition measured after 24 hrs by MTT assay. In kind it is functional, cell-based. For orientation: Formazan colour is commonly taken as a measure of viable cells.
Series [6] deals with T1, Amine oxidase [flavin-containing] A (Homo sapiens, UniProt P21397).
T1 sequence (P21397 whole entry): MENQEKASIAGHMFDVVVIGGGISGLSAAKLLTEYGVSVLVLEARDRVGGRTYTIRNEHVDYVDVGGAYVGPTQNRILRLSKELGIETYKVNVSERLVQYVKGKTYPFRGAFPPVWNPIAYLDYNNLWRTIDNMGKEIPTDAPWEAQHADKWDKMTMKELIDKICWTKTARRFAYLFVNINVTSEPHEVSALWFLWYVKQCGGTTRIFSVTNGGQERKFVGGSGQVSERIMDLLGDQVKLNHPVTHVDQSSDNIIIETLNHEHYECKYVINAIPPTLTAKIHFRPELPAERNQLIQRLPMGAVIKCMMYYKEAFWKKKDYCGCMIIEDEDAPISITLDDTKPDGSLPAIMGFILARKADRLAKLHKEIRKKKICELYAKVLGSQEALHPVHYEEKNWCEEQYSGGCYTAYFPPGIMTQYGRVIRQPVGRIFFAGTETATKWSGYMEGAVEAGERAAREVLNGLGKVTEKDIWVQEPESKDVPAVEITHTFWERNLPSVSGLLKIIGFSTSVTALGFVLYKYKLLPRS
Nature of the series: Inhibition of human MAO-A preincubated for 15 mins followed by p-tyramine substrate addition and measured after 20 mins by Amplex red reagent based fluorescence assay.

The test system of series [7] is PC-12. Nature of the series: Neuroprotection against oligomycin A-induced cell death in rat PC12 cells preincubated for 4 hrs followed by oligomycin A addition measured after 24 hrs by MTT assay. The class given is functional, cell-based.
The test system of series [8] is PC-12. Nature of the series: Neuroprotection against H2O2-induced oxidative damage in rat PC12 cells assessed as late apoptotic cells at 10 uM after 24 hrs in presence of H2O2 by annexin V-FITC/propidium iodide staining based flow cytometric analysis (reference value: 6.2%). In kind it is functional.
The subject of series [9] is PC-12. Nature of the series: Neuroprotection against rotenone-induced cell death in rat PC12 cells preincubated for 4 hrs followed by rotenone addition measured after 24 hrs by MTT assay. The class given is functional, cell-based.
The test system of series [10] is PC-12. Nature of the series: Neurotoxicity in rat PC12 cells at 30 uM after 24 hrs by MTT assay. The class given is toxicity, cell-based. To be noted: pc-12, 24 h.
The species named for series [11] is Homo sapiens. The series is described as follows: Neuroprotection against LPS-induced inflammation in […] cells assessed as reduction in ROS production after 18 hrs by DCFH-DA staining-based flow cytometric analysis. In kind it is functional, cell-based.
Series [12] concerns the target T2, Amine oxidase [flavin-containing] B (Homo sapiens, UniProt P27338).
T2 sequence (P27338 whole entry): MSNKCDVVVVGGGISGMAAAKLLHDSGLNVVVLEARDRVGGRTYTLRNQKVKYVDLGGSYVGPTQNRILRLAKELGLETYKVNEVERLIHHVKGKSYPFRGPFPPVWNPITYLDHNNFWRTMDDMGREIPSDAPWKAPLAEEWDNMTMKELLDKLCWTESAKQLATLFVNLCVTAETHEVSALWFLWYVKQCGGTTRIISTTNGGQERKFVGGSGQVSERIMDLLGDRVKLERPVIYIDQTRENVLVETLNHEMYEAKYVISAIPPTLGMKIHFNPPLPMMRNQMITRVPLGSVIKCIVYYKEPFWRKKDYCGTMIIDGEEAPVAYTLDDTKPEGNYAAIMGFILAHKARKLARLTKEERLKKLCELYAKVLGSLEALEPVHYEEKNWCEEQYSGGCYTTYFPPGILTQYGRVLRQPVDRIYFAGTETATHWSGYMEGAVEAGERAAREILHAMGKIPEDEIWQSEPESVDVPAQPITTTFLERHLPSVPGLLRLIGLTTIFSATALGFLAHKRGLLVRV

The subject of series [13] is PC-12. Nature of the series: Neuroprotection against H2O2-induced oxidative damage in rat PC12 cells assessed as late apoptotic cells at 2.5 uM after 24 hrs in presence of H2O2 by annexin V-FITC/propidium iodide staining based flow cytometric analysis (reference value: 6.2%). The class given is functional.
For series [14], the species on record is Homo sapiens. Nature of the series: Selectivity ratio of IC50 for human MAO-A to IC50 for human MAO-B.
The subject of series [15] is PC-12. Nature of the series: Neuroprotection against H2O2-induced oxidative damage in rat PC12 cells assessed as reduction in ROS production preincubated for 4 hrs followed by H2O2 addition and measured after 24 hrs by DCFH-DA staining-based flow cytometric analysis. In kind it is functional, cell-based.
The species named for series [16] is Homo sapiens. The series is described as follows: Antiinflammatory activity in […] cells assessed as inhibition of LPS-induced TNF-alpha release preincubated for 1 hr followed by LPS addition measured after 18 hrs by ELISA. In kind it is functional, cell-based.
A short description of the next series: in vitro. Details: dose or concentration left out as unconfirmed. To be noted: PAMPA. Background: PAMPA measures passive passage across an artificial lipid membrane.
Series [17] can be described thus: Antioxidant activity assessed as ferric ion reduction by measuring trolox equivalents after 3 to 5 mins by FRAP assay. In kind it is functional.
Series [18] can be described thus: Neuroprotection against LPS-induced inflammation in […] cells assessed as reduction in ROS production by measuring mean fluorescence intensity at 5 uM after 18 hrs by DCFH-DA staining-based flow cytometric analysis (reference value: 56792). In kind it is functional.
For series [19], the system named is PC-12. Nature of the series: Neuroprotection against H2O2-induced oxidative damage in rat PC12 cells assessed as reduction in ROS production by measuring mean fluorescence intensity at 10 uM preincubated for 4 hrs followed by H2O2 addition measured after 24 hrs by DCFH-DA staining-based flow cytometric analysis (reference value: 102489). In kind it is functional.

Series [20] is described as follows: Antioxidant activity assessed as inhibition of DPPH free radical after 30 mins by UV-Visible spectrophotometric analysis. The class given is functional.
Series [21] deals with PC-12. The series is described as follows: Neuroprotection against H2O2-induced oxidative damage in rat PC12 cells assessed as early apoptotic cells at 10 uM after 24 hrs in presence of H2O2 by annexin V-FITC/propidium iodide staining based flow cytometric analysis (reference value: 2.1%). In kind it is functional.
Series [22] is described as follows: Neuroprotection against H2O2-induced inflammation in […] cells assessed as reduction in ROS production by measuring mean fluorescence intensity at 10 uM after 18 hrs by DCFH-DA staining-based flow cytometric analysis (reference value: 11273). The class given is functional.
Series [23] has as its system PC-12. The series is described as follows: Neuroprotection against H2O2-induced oxidative damage in rat PC12 cells assessed as early apoptotic cells at 2.5 uM after 24 hrs in presence of H2O2 by annexin V-FITC/propidium iodide staining based flow cytometric analysis (reference value: 2.1%). In kind it is functional.

Description for in vitro: Effective permeability of the compound at 100 mg/ml incubated for 16 hrs by PAMPA-BBB assay

On to `CC(C)=CCc1c(O)cc(/C=C/c2ccc3c(c2)[C@H](c2cc(O)c(CC=C(C)C)c(O)c2)[C@@H](c2ccc(O)cc2)O3)cc1O`, for which the result in the series on PC-12 [1], in the series filed under Homo sapiens [4] and in the series on PC-12 [5] was Active. For the same compound, the results for the Flu intensity (in [2]; in [18]; in the series on PC-12 [19]) were 14563, 28450 and 25470, respectively. Further, the Activity in series [3] was 1.43 equiv; in the series with PC-12 [7] it was “Dose-dependent effect”; with PC-12 [8], 0.7%; in the series on PC-12 [9], “Dose-dependent effect”; with PC-12 [10], “Non-Toxic”; in the series filed under Homo sapiens [11], “Dose-dependent effect”. For the same compound, the Activity with PC-12 [13] is 4.2%; in the series on PC-12 [15], “Dose-dependent effect”; in series [17] it was 1.74 equiv. For the same compound, the IC50 was determined as 2.6 µM in [6], 0.92 µM in [12] and 47 µM in series [20]. Besides, the Ratio IC50 in the series listed under Homo sapiens [14] is 2.83. In the series filed under Homo sapiens [16], the inhibition entry was “Dose-dependent effect”. The compound further yielded a Papp at 16 h in the series “in vitro” of 10.1 ×10⁻⁶ cm/s.

As to `CC(C)=CCc1c(O)cc(/C=C/c2ccc3c(c2)[C@H](c2cc(O)c4c(c2)OC(C)(C)CC4)[C@@H](c2ccc(O)cc2)O3)cc1O`, the Activity in series [3] was 1.7 equiv; with PC-12 [7] it was “Dose-dependent effect”; with PC-12 [9] it was “Dose-dependent effect”; with PC-12 [10], “Non-Toxic”; in the series filed under Homo sapiens [11], “Dose-dependent effect”; in the series with PC-12 [21], 1.9%. Moreover, the Activity entry is “Dose-dependent effect” in the series on PC-12 [15], 1.97 equiv in series [17] and 2.1% in the series on PC-12 [23]. Also, the result in the series filed under Homo sapiens [4] and in the series with PC-12 [5] was Active. Also, the half-maximal inhibitory concentration (IC50) in series [6] was 8.12 µM; in series [12], 3.93 µM; in series [20], 35.3 µM. For the same compound, the Ratio IC50 in the series filed under Homo sapiens [14] was determined as 2.07. In addition, the inhibition entry in the series listed under Homo sapiens [16] was “Dose-dependent effect”. Besides, the Flu intensity in [22] is recorded as 7407. This compound had a Papp at 16 h in “in vitro” of 6.92 ×10⁻⁶ cm/s.

Values taken from ChEMBL document CHEMBL4330083, “Synthesis and evaluation of isoprenylation-resveratrol dimer derivatives against Alzheimer's disease” (Eur J Med Chem, 2019).
